# Where a name gives a salt, the structure may show the parent alone.
# Conditions: for Δ % weight 24 h / Δ % weight 48 h / Δ % weight 6 days: 64±5% relative humidity, 22±2° C.; for KF (t = 0): Karl Fischer value at the beginning of the study; for Hygroscopicity class according to the scale: PharmaEuropa scale of % incorporation of water
# Protocol: The objective was to measure the hygroscopicity of the salts of the present invention, and comparing it with the one of the known salt of each counter part of the salts. The increasing of the weight will be measured in order to evaluate the incorporation of water in the samples, together with the Karl Fischer factor.
# The scale is the following:
# Preparation of the Humidity chamber: A supersaturated solution of sodium nitrite (45 g/50 ml) is prepared and introduced in a humidification chamber (samplaterecord). The chamber is maintained at a temperature of 22±2° C. during 24 hours before use, and humidity is controlled each day.
# The variation of the weight is controlled and the following percentage is calculated: Δ%weight=(Pn−P1)/P1×100 wherein: P1 is the initial weight, Pn is the weight measured for the sample.
SMILES,Δ % weight 24 h,Δ % weight 48 h,Δ % weight 6 days,KF (t = 0),Hygroscopicity class according to the scale
CNCC[C@H](Oc1cccc2ccccc12)c1cccs1 [Duloxetine HCl],0.19%,0.26%,0.18%,0.33,not hygroscopic
CNCC[C@H](Oc1cccc2ccccc12)c1cccs1.CNCC[C@H](Oc1cccc2ccccc12)c1cccs1.COc1ccc2cc([C@H](C)C(=O)O)ccc2c1.COc1ccc2cc([C@H](C)C(=O)O)ccc2c1.COc1ccc2cc([C@H](C)C(=O)O)ccc2c1,0%,0.09%,0.13%,0.36,not hygroscopic
COc1ccc2cc([C@H](C)C(=O)[O-])ccc2c1.[Na+] [sodium naproxen],14.39%,14.39%,14.3%,1.04,hygroscopic

# From patent publication US8501802B2, “Co-crystals of duloxetine and COX-INHIBITORs for the treatment of pain” (Laboratorios del Dr. Esteve, S.A., priority 2008, dated 2013)
